In US7138361B2, “Herbicidal heterocycles” (E. I. du Pont de Nemours and Company, priority 2000, dated 2006):

Tests used:
Type in all cases: in vivo
[1] = test system: pigweed (Amaranthus retroflexus); assay: Test B preemergence
Procedure, shortened: (§1)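 Visual injury scores, 0 = no effect to 100 = complete control, assigned against controls after 13 to 15 days in the greenhouse. Compounds formulated in non-phytotoxic solvent plus surfactant and applied to soil after planting (pre) or onto foliage of 1- to 4-leaf plants (post).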

[2] = test system: cocklebur (Xanthium strumarium); assay: Test B preemergence
Procedure, shortened: as §1

rice (Oryza saliva) = assay: Test B preemergence
Procedure, shortened: as §1

[3] = test system: lambsquarters (Chenopodium album); assay: Test B preemergence
Procedure, shortened: as §1

corn (Zea mays) = assay: Test B preemergence
Procedure, shortened: as §1

[4] = test system: velvetleaf (Abutilon theophrasti); assay: Test B preemergence
Procedure, shortened: as §1

[5] = test system: morning glory (Ipomoea hederacea); assay: Test B preemergence
Procedure, shortened: as §1

[6] = test system: barnyardgrass (Echinochloa crus-galli); assay: Test B preemergence
Procedure, shortened: as §1

[7] = test system: giant foxtail (Setaria faberii); assay: Test B preemergence
Procedure, shortened: as §1

[8] = test system: Surinam grass (Brachiaria decumbens); assay: Test B preemergence
Procedure, shortened: as §1

[9] = test system: crabgrass (Digitaria sanguinalis); assay: Test B preemergence
Procedure, shortened: as §1

[10] = test system: cocklebur (Xanthium strumarium); assay: Test C preemergence
Source text: (§2) Seeds of plant species selected from bermudagrass (Cynodon dactylon), Surinam grass (Brachiaria decumbens), cocklebur (Xanthium strumarium), corn (Zea mays), crabgrass (Digitaria sanguinalis), woolly cupgrass (Eriochloa villosa), giant foxtail (Setaria faberii), goosegrass (Eleusine indica), johnsongrass (Sorghum halepense), kochia (Kochia scoparia), lambsquarters (Chenopodium album), morningglory (Ipomoea hederacea), yellow nutsedge (Cyperus esculentus), pigweed (Amaranthus retroflexus), common ragweed (Ambrosia elatior), soybean (Glycine max) and velvetleaf (Abutilon theophrasti) were planted and treated preemergence with test chemicals formulated in a non-phytotoxic solvent mixture which included a surfactant.
(§3) At the same time, plants selected from these crop and weed species and also winter barley (Hordeum vulgare), blackgrass (Alopecurus myosuroides), canary grass (Phalaris minor), chickweed (Stellaria media), downy brome (Bromus tectorum), green foxtail (Setaria viridis), Italian ryegrass (Lolium multiflorum), wheat (Triticum aestivum), wild oat (Avena fatua) and windgrass (Apera spica-venti) were treated with postemergence applications of some of the test chemicals formulated in the same manner. Plants ranged in height from 2 to 18 cm (1- to 4-leaf stage) for postemergence treatments. Plant species in the flooded paddy test consisted of rice (Oryza saliva), smallflower flatsedge (Cyperus difformis), duck salad (Heteranthera limosa) and barnyardgrass (Echinochloa crus-galli) grown to the 2-leaf stage for testing. Treated plants and controls were maintained in a greenhouse for 12 to 14 days, after which time all species were compared to controls and visually evaluated. Plant response ratings, summarized in Table C, are based on a scale of 0 to 100 where 0 is no effect and 100 is complete control. A dash (-) response means no test result.

[11] = test system: common ragweed (Ambrosia elatior); assay: Test C preemergence
Source text: as §2, §3

[12] = test system: morningglory (Ipomoea hederacea); assay: Test C preemergence
Source text: as §2, §3

[13] = test system: bermudagrass (Cynodon dactylon); assay: Test C preemergence
Source text: as §2, §3

Sunflower = assay: Test C preemergence; settings: Rate 125 g/ha; scale 0 to 100, 0 no effect, 100 complete control
Source text: as §2, §3

[14] = test system: velvetleaf (Abutilon theophrasti); assay: Test C preemergence
Source text: as §2, §3

[15] = test system: giant foxtail (Setaria faberii); assay: Test C preemergence
Source text: as §2, §3

[16] = test system: goosegrass (Eleusine indica); assay: Test C preemergence
Source text: as §2, §3

[17] = test system: Surinam grass (Brachiaria decumbens); assay: Test C preemergence
Source text: as §2, §3

[18] = test system: crabgrass (Digitaria sanguinalis); assay: Test C preemergence
Source text: as §2, §3

[19] = Preemergence, Rate 500 g/ha, scale 0 to 100, 0 no effect, 100 complete control
[20] = preemergence, Rate 62 g/ha, scale of 0 to 100 where 0 is no effect and 100 is complete control, 13 to 15 days
[21] = preemergence, Rate 125 g/ha, scale of 0 to 100 where 0 is no effect and 100 is complete control, 13 to 15 days
[22] = preemergence, Rate 250 g/ha, scale 0 to 100, 0 no effect, 100 complete control
[23] = Rate 125 g/ha, scale 0 to 100, 0 no effect, 100 complete control
[24] = preemergence, Rate 31 g/ha, scale 0 to 100
[25] = preemergence, Rate 62 g/ha, scale 0 to 100
[26] = Rate 62 g/ha, scale 0 to 100, 0 no effect, 100 complete control
[27] = preemergence, Rate 250 g/ha, visual evaluation after 12 to 14 days

Cc1ccc(N2CCC(n3ccc(C(C)(C)C)n3)C2=O)cc1OCCCl (centres unmarked) [Compound 109]
Plant response rating, Pigweed [1, 19]: 100 | Plant response rating, Pigweed [1, 20]: 100 | Plant response rating, Pigweed [1, 21]: 100 | Plant response rating, Pigweed [1, 22]: 100 | Plant response rating, Cocklebur [2, 19]: 0 | Plant response rating, Cocklebur [2, 20]: 0 | Plant response rating, Cocklebur [2, 21]: 0 | Plant response rating, Cocklebur [2, 22]: 0 | Plant response rating, Rice (rice (Oryza saliva); [19]): 0 | Plant response rating, Rice (rice (Oryza saliva); [20]): 0 | Plant response rating, Rice (rice (Oryza saliva); [21]): 0 | Plant response rating, Rice (rice (Oryza saliva); [22]): 0 | Plant response rating, Lambsquarters [3, 19]: 100 | Plant response rating, Lambsquarters [3, 20]: 100 | Plant response rating, Lambsquarters [3, 21]: 100 | Plant response rating, Lambsquarters [3, 22]: 100 | Plant response rating, Corn (corn (Zea mays); [19]): 0 | Plant response rating, Corn (corn (Zea mays); [20]): 0 | Plant response rating, Corn (corn (Zea mays); [21]): 0 | Plant response rating, Corn (corn (Zea mays); [22]): 0 | Plant response rating, Velvetleaf [4, 19]: 70 | Plant response rating, Velvetleaf [4, 20]: 0 | Plant response rating, Velvetleaf [4, 21]: 0 | Plant response rating, Velvetleaf [4, 22]: 60 | Plant response rating, Morningglory [5, 19]: 0 | Plant response rating, Morningglory [5, 20]: 0 | Plant response rating, Morningglory [5, 21]: 0 | Plant response rating, Morningglory [5, 22]: 0 | Plant response rating, Barnyardgrass [6, 19]: 100 | Plant response rating, Barnyardgrass [6, 20]: 0 | Plant response rating, Barnyardgrass [6, 21]: 30 | Plant response rating, Barnyardgrass [6, 22]: 50 | Plant response rating, Foxtail, Giant [7, 19]: 50 | Plant response rating, Foxtail, Giant [7, 20]: 20 | Plant response rating, Foxtail, Giant [7, 21]: 0 | Plant response rating, Foxtail, Giant [7, 22]: 100 | Plant response rating, Surinam grass [8, 19]: 100 | Plant response rating, Surinam grass [8, 20]: 20 | Plant response rating, Surinam grass [8, 21]: 50 | Plant response rating, Surinam grass [8, 22]: 90 | Plant response rating, Crabgrass [9, 19]: 100 | Plant response rating, Crabgrass [9, 20]: 100 | Plant response rating, Crabgrass [9, 21]: 100 | Plant response rating, Crabgrass [9, 22]: 100 | Plant response rating, Cocklebur [10, 23]: 30 | Plant response rating, Cocklebur [10, 24]: 0 | Plant response rating, Cocklebur [10, 25]: 0 | Plant response rating, Cocklebur [10, 22]: 30 | Plant response rating, Ragweed, Common [11, 23]: 100 | Plant response rating, Ragweed, Common [11, 24]: 10 | Plant response rating, Ragweed, Common [11, 25]: 90 | Plant response rating, Ragweed, Common [11, 22]: 100 | Plant response rating, Morningglory [12, 23]: 100 | Plant response rating, Morningglory [12, 24]: 30 | Plant response rating, Morningglory [12, 25]: 90 | Plant response rating, Morningglory [12, 22]: 100 | Plant response rating, Bermudagrass [13, 23]: 100 | Plant response rating, Bermudagrass [13, 24]: 100 | Plant response rating, Bermudagrass [13, 25]: 100 | Plant response rating, Bermudagrass [13, 22]: 100 | Plant response rating, Sunflower (Sunflower): 90 | Plant response rating, Velvetleaf [14, 23]: 100 | Plant response rating, Velvetleaf [14, 24]: 50 | Plant response rating, Velvetleaf [14, 25]: 100 | Plant response rating, Velvetleaf [14, 22]: 100 | Plant response rating, Foxtail, Giant [15, 23]: 20 | Plant response rating, Foxtail, Giant [15, 24]: 0 | Plant response rating, Foxtail, Giant [15, 25]: 0 | Plant response rating, Foxtail, Giant [15, 22]: 90 | Plant response rating, Goosegrass [16, 23]: 100 | Plant response rating, Goosegrass [16, 24]: 90 | Plant response rating, Goosegrass [16, 25]: 100 | Plant response rating, Goosegrass [16, 22]: 100 | Plant response rating, Surinam grass [17, 23]: 80 | Plant response rating, Surinam grass [17, 24]: 0 | Plant response rating, Surinam grass [17, 25]: 0 | Plant response rating, Surinam grass [17, 22]: 90 | Plant response rating, Crabgrass [18, 23]: 100 | Plant response rating, Crabgrass [18, 24]: 100 | Plant response rating, Crabgrass [18, 25]: 100 | Plant response rating, Crabgrass [18, 22]: 100

COC(=O)c1cccc(N2CCC(n3ccc(C(C)(C)C)n3)C2=O)c1 (centres unmarked) [Compound 73]
Plant response rating, Pigweed [1, 19]: 100 | Plant response rating, Pigweed [1, 21]: 100 | Plant response rating, Cocklebur [2, 19]: 90 | Plant response rating, Cocklebur [2, 21]: 0 | Plant response rating, Rice (rice (Oryza saliva); [19]): 40 | Plant response rating, Rice (rice (Oryza saliva); [21]): 30 | Plant response rating, Lambsquarters [3, 19]: 100 | Plant response rating, Lambsquarters [3, 21]: 100 | Plant response rating, Corn (corn (Zea mays); [19]): 30 | Plant response rating, Corn (corn (Zea mays); [21]): 0 | Plant response rating, Velvetleaf [4, 19]: 100 | Plant response rating, Velvetleaf [4, 21]: 90 | Plant response rating, Morningglory [5, 19]: 100 | Plant response rating, Morningglory [5, 21]: 0 | Plant response rating, Barnyardgrass [6, 19]: 100 | Plant response rating, Barnyardgrass [6, 21]: 100 | Plant response rating, Foxtail, Giant [7, 19]: 100 | Plant response rating, Foxtail, Giant [7, 21]: 100 | Plant response rating, Surinam grass [8, 19]: 90 | Plant response rating, Surinam grass [8, 21]: 50 | Plant response rating, Crabgrass [9, 19]: 100 | Plant response rating, Crabgrass [9, 21]: 100 | Plant response rating, Cocklebur [10, 26]: 70 | Plant response rating, Cocklebur [10, 24]: 20 | Plant response rating (0 to 100), Cocklebur [10, 27]: 80 | Plant response rating, Ragweed, Common [11, 23]: 80 | Plant response rating, Ragweed, Common [11, 24]: 30 | Plant response rating, Ragweed, Common [11, 22]: 100 | Plant response rating, Morningglory [12, 26]: 30 | Plant response rating, Morningglory [12, 23]: 30 | Plant response rating, Morningglory [12, 24]: 30 | Plant response rating, Morningglory [12, 22]: 100 | Plant response rating, Bermudagrass [13, 26]: 70 | Plant response rating, Bermudagrass [13, 23]: 100 | Plant response rating, Bermudagrass [13, 24]: 60 | Plant response rating (0 to 100 where 0 is no effect and 100 is complete control), Bermudagrass [13, 27]: 100 | Plant response rating, Sunflower (Sunflower): 50 | Plant response rating, Velvetleaf [14, 23]: 50 | Plant response rating, Velvetleaf [14, 24]: 20 | Plant response rating, Velvetleaf [14, 22]: 60 | Plant response rating, Foxtail, Giant [15, 26]: 80 | Plant response rating, Foxtail, Giant [15, 23]: 100 | Plant response rating, Foxtail, Giant [15, 24]: 20 | Plant response rating (0 to 100), Foxtail, Giant [15, 27]: 100 | Plant response rating, Goosegrass [16, 26]: 80 | Plant response rating, Goosegrass [16, 23]: 100 | Plant response rating, Goosegrass [16, 24]: 60 | Plant response rating (0 to 100), Goosegrass [16, 27]: 100 | Plant response rating, Surinam grass [17, 26]: 50 | Plant response rating, Surinam grass [17, 23]: 70 | Plant response rating, Surinam grass [17, 24]: 20 | Plant response rating (0 to 100), Surinam grass [17, 27]: 70 | Plant response rating, Crabgrass [18, 26]: 90 | Plant response rating, Crabgrass [18, 23]: 100 | Plant response rating, Crabgrass [18, 24]: 90 | Plant response rating (0 to 100), Crabgrass [18, 27]: 100
